{"source": "ChEMBL document CHEMBL1159077", "about": "“Discovery and SAR of substituted 3-oxoisoindoline-4-carboxamides as potent inhibitors of poly(ADP-ribose) polymerase (PARP) for the treatment of cancer” (Bioorg Med Chem Lett, 2010)", "key": {"[1]": {"biological_target": "T1, Poly [ADP-ribose] polymerase 1 (Homo sapiens, UniProt P09874)", "T1 sequence (P09874 whole entry)": "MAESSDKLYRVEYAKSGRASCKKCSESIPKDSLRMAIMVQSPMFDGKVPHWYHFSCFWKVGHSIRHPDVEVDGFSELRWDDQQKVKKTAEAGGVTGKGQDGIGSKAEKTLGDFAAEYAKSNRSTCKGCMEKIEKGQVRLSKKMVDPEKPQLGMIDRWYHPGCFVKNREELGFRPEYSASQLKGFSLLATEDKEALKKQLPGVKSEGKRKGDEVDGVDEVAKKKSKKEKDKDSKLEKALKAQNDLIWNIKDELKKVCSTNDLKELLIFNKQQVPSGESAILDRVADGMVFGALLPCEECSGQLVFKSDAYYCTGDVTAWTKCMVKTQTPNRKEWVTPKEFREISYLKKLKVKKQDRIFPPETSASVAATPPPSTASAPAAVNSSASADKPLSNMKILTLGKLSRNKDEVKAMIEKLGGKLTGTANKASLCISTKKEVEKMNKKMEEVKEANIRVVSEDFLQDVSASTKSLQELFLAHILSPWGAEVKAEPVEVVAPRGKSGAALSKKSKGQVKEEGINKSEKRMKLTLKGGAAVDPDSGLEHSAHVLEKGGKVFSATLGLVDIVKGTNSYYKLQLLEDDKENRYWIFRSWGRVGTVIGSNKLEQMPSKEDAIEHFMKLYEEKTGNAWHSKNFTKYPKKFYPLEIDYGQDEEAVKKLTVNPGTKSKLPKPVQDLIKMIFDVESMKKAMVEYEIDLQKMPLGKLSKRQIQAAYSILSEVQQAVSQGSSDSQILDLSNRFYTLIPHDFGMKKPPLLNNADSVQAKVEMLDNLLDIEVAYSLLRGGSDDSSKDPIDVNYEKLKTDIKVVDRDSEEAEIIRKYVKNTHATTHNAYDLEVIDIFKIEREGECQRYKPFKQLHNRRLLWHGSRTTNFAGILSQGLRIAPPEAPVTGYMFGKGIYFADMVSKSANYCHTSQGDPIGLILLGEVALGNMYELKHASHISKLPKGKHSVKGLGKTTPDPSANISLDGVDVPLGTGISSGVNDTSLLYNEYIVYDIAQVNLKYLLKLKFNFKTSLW", "test": "Inhibition of PARP1 by microplate scintillation counting"}, "[2]": {"biological_target": "T1, Poly [ADP-ribose] polymerase 1", "test": "Inhibition of PARP1 in human C41 cells", "type": "cell-based"}}}
{"smiles": "Cc1cccc(N2Cc3cccc(C(N)=O)c3C2=O)c1", "values": [{"measurement": "Ki", "setting": "[1]", "result": 0.261, "unit": "µM"}]}
{"smiles": "NC(=O)c1cccc2c1C(=O)N(CC1CCCNC1)C2", "note": "(stereo unspecified)", "values": [{"measurement": "Ki", "setting": "[1]", "result": 0.164, "unit": "µM"}]}
{"smiles": "NC(=O)c1cccc2c1C(=O)N(C1CCNCC1)C2", "values": [{"measurement": "EC50", "setting": "[2]", "result": 0.051, "unit": "µM"}, {"measurement": "Ki", "setting": "[1]", "result": 0.033, "unit": "µM"}]}
{"smiles": "NC(=O)c1cccc2c1C(=O)N(c1ccc(CN3CCCC3)cc1)C2", "values": [{"measurement": "EC50", "setting": "[2]", "result": 0.053, "unit": "µM"}, {"measurement": "Ki", "setting": "[1]", "result": 0.053, "unit": "µM"}]}
{"smiles": "NC(=O)c1cccc2c1C(=O)N(c1ccc(C3CCNCC3)cc1)C2", "values": [{"measurement": "EC50", "setting": "[2]", "result": 0.12, "unit": "µM"}, {"measurement": "Ki", "setting": "[1]", "result": 0.032, "unit": "µM"}]}
{"smiles": "CC(C)CN1Cc2cccc(C(N)=O)c2C1=O", "values": [{"measurement": "EC50", "setting": "[2]", "result": "> 1", "unit": "µM"}, {"measurement": "Ki", "setting": "[1]", "result": 0.112, "unit": "µM"}]}
{"smiles": "CN1Cc2cccc(C(N)=O)c2C1=O", "values": [{"measurement": "Ki", "setting": "[1]", "result": 0.123, "unit": "µM"}]}
{"smiles": "NC(=O)c1cccc2c1C(=O)N(C1CCCNC1)C2", "note": "(stereo unspecified)", "values": [{"measurement": "Ki", "setting": "[1]", "result": 0.14, "unit": "µM"}]}
{"smiles": "NC(=O)c1cccc2c1C(=O)N(CC1CCCN1)C2", "note": "(stereo unspecified)", "values": [{"measurement": "EC50", "setting": "[2]", "result": 0.374, "unit": "µM"}, {"measurement": "Ki", "setting": "[1]", "result": 0.377, "unit": "µM"}]}
{"smiles": "NC(=O)c1cccc2c1C(=O)N(C1CCNC1)C2", "note": "(stereo unspecified)", "values": [{"measurement": "EC50", "setting": "[2]", "result": 0.16, "unit": "µM"}, {"measurement": "Ki", "setting": "[1]", "result": 0.059, "unit": "µM"}]}
{"smiles": "NC(=O)c1cccc2c1C(=O)N(c1cccc(CN3CCCC3)c1)C2", "values": [{"measurement": "Ki", "setting": "[1]", "result": 0.391, "unit": "µM"}]}
{"smiles": "NC(=O)c1cccc2c1C(=O)N(Cc1cccnc1)C2", "values": [{"measurement": "Ki", "setting": "[1]", "result": "> 9.5", "unit": "µM"}]}
{"smiles": "NC(=O)c1cccc2c1C(=O)N(c1cccc(C3CCNCC3)c1)C2", "values": [{"measurement": "Ki", "setting": "[1]", "result": 0.314, "unit": "µM"}]}
{"smiles": "NC(=O)c1cccc2c1C(=O)N(C1CCCCC1)C2", "values": [{"measurement": "EC50", "setting": "[2]", "result": "> 1", "unit": "µM"}, {"measurement": "Ki", "setting": "[1]", "result": 0.172, "unit": "µM"}]}
{"smiles": "CN(C)c1ccc(N2Cc3cccc(C(N)=O)c3C2=O)cc1", "values": [{"measurement": "EC50", "setting": "[2]", "result": 0.372, "unit": "µM"}, {"measurement": "Ki", "setting": "[1]", "result": 0.07, "unit": "µM"}]}
{"smiles": "NC(=O)c1cccc2c1C(=O)N(CC1CCNCC1)C2", "values": [{"measurement": "Ki", "setting": "[1]", "result": 0.384, "unit": "µM"}]}
{"smiles": "CN1CCN(c2ccc(N3Cc4cccc(C(N)=O)c4C3=O)cc2)CC1", "values": [{"measurement": "EC50", "setting": "[2]", "result": 0.022, "unit": "µM"}, {"measurement": "Ki", "setting": "[1]", "result": 0.048, "unit": "µM"}]}
